As a reminder, the inhibition is the relative decrease from the control value, in per cent. For orientation: melting point means the temperature, or range, at which the solid turns liquid.

The source of these data is patent publication US6838476B1, “Imidazoles with anti-inflammatory activity” (J. Uriach & Cia, SA, priority 1998, dated 2005).

Each structure is given as a SMILES string.

In one series the target is T1, cyclooxygenase-2 (COX-2) (Homo sapiens, UniProt P35354).
T1 construct: 5 μL of LPS is also added (in order to induce COX-2 activy); from tissue; host or cells: heparinized human whole blood, LPS-stimulated, with aspirin added
T1 sequence (P35354 18-604): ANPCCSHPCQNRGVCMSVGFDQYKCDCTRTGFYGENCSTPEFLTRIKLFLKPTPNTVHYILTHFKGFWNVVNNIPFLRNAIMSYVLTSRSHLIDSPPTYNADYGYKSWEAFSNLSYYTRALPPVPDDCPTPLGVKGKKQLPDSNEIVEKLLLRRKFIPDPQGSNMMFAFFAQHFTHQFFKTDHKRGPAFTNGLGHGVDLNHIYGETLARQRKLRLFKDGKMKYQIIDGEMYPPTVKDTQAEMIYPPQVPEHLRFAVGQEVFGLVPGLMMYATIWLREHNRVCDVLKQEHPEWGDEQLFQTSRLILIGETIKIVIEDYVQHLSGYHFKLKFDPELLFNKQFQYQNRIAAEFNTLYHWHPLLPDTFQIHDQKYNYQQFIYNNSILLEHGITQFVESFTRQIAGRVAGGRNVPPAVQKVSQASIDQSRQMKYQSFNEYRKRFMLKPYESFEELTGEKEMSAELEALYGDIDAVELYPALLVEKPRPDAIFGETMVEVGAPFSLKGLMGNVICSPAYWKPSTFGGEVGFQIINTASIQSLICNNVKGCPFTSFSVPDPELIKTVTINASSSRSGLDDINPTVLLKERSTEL
Put plainly: Inhibition of cyclooxygenase-2 (COX-2) activity in human blood (prostaglandin E2 levels after LPS, aspirin added). It is filed as cell-based. Conditions: for inhibition at 10 µM: read-out: % inhibition COX-2 (10 μM), 10 μM test compound; for inhibition at 1 µM: read-out: % inhibition COX-2 (1 μM), 1 μM test compound. The procedure:
(§1) Inhibition of cyclooxgenase-1 (COX-1) and cyclooxygenase-2 (COX-2) Activity in Human Blood
Blood is divided into two groups; one will be used to determine COX-1 activity and the other one for COX-2. The procedure to follow will be different in each case.
For COX-2, 3-mL tubes are prepared in duplicate containing 5 μL of the test compound (solution in DMSO) and 5 μL of vehicle in the case of blanks and controls. To each tube, 5 μL of a 2 mg/mL solution of aspirin in DMSO is also added (in order to inhibit COX-1 activity), and to all tubes except the blanks 5 μL of LPS is also added (in order to induce COX-2 activy). Finally, 1 mL of heparinized blood is added to each tube, and tubes are then stirred and placed in a thermostatized bath at 37° C. for 24 h. Then, tubes are centrifuged at 2000 g for 10 min at 4° C., the resulting plasma is collected and is frozen at −70° C. until use. COX-2 activity is determined by measuring prostaglandin E2 levels in the samples. The plasma stored at −70° C. is defrozen and prostaglandin E2 levels in these samples are determined using a kit (Kit Prostaglandin E2, Biotrak EIA system RPN222 Amershan), according to the manufacturer's instructions.

In the next series the target is T2, cyclooxygenase-1 (COX-1) (Homo sapiens, UniProt P23219).
T2 construct: from tissue; host or cells: heparinized human whole blood
Put plainly: Inhibition of cyclooxygenase-1 (COX-1) activity in human blood (thromboxane B2 levels after ionophore A23187). It is filed as cell-based. Conditions: for inhibition at 10 µM: read-out: % inhibition COX-1 (10 μM), 10 μM test compound. The procedure: as §1
Heparinized human blood from healthy volunteers who had not taken non-steroidal anti-inflammatory drugs (NSAIDs) for a week, and neither alcohol nor xanthines 24 h before blood collection, is used. Blood is divided into two groups; one will be used to determine COX-1 activity and the other one for COX-2. The procedure to follow will be different in each case.
For COX-1, 12-mL tubes are used. 5 μL of the test compound (in DMSO solution; in duplicate) are placed in each tube. Aditionally two tubes for blanks and two tubes for controls containing 5 μL of DMSO are used. Next, 1 mL of blood is added to each tube and they are stirred. The tubes are placed in a thermostatized bath at 37° C. for 5 h. Then, 5 μL of 5 mM ionophore A23187 is added to each tube, except to the blanks, and tubes are incubated for 30 min more at 37° C. After this time, the tubes are placed in ice and 100 μL of a 100 mM EGTA solution is added to stop the reaction. 2.5 mL of methanol is added to each tube to reach a final concentration of 70%. The tubes are stirred and frozen at −70° C. till their use. The COX-1 activity is determined by measuring thromboxane B2 levels in the samples. Blood is defrozen and centrifuged at 2000 g for 10 min at 4° C. 1 mL of supematant is evaporated under nitrogen to dryness. The solid residue thus obtained is resuspended in 1 mL of saline and the thromboxane B2 levels in these samples are determined using a kit (Kit Thromboxane B2, Biotrak EIA system RPN220 Amershan), according to the manufacturer's instructions.

T2 sequence (P23219 24-599): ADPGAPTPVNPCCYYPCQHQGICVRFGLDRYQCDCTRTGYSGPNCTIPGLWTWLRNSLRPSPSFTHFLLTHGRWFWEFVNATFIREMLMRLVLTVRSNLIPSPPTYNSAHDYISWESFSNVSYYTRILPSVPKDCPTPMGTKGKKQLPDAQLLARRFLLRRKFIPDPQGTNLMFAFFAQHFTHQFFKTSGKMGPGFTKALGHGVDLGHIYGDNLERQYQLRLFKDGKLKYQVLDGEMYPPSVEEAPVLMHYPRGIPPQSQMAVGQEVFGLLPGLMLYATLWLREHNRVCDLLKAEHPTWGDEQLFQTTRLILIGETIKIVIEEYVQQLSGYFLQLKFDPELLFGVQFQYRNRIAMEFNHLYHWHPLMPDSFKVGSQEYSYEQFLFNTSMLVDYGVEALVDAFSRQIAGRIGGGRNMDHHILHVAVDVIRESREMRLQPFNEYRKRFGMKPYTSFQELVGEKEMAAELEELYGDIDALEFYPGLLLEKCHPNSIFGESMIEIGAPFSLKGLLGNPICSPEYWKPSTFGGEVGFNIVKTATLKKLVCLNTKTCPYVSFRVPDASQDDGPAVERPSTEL

On to `Cc1ncn(-c2ccc(S(C)(=O)=O)cc2)c1-c1ccc(F)cc1` [Example 3, 5-(4-Fluorophenyl)-4-methyl-1-(4-methylsulfonylphenyl)imidazole], for which the results for the inhibition at 10 µM at cyclooxygenase-2 (COX-2) and on cyclooxygenase-1 (COX-1) were 86.5% and 8.3%, respectively.
`Cc1ccc(-n2c(-c3ccc(S(C)(=O)=O)cc3)cnc2Cl)cc1` [Example 12, 2-Chloro-1-(4-methylphenyl)-5-(4-methylsulfonylphenyl)imidazole] had a melting point of 156 to 160 °C. At cyclooxygenase-2 (COX-2), the inhibition at 1 µM worked out at 83.6% and the inhibition at 10 µM was found to be 100%. Also, the inhibition at 10 µM at cyclooxygenase-1 (COX-1) stood at 70.6%.
Regarding `Cc1ccc(-c2c(Cl)ncn2-c2ccc(S(C)(=O)=O)cc2)cc1F` [4(8), 4-Chloro-5-(3-fluoro-4-methylphenyl)-1-(4-methylsulfonylphenyl)-imidazole], at cyclooxygenase-2 (COX-2), the inhibition at 1 µM is 75.1% and the inhibition at 10 µM was 100%. Also, the inhibition at 10 µM at cyclooxygenase-1 (COX-1) is 47.5%.
For the molecule `CS(=O)(=O)c1ccc(-n2cnc(Cl)c2-c2ccc(Cl)nc2Cl)cc1` [4(17)], the “% inhibition COX-2 (1 μM)” value at cyclooxygenase-2 (COX-2) (1 μM test compound) is reported as 65%. In addition, at cyclooxygenase-2 (COX-2) (10 μM test compound), the “% inhibition COX-2 (10 μM)” value came out at 86.3%. Also, the “% inhibition COX-1 (10 μM)” value at cyclooxygenase-1 (COX-1) (10 μM test compound) is 22.7%.
Turning to `CS(=O)(=O)c1ccc(-n2cnc(Cl)c2-c2ccc(Cl)nc2)cc1` [4(16), 4-Chloro-5-(6-chloro-3-pyridyl)-1-(4-methylsulfonylphenyl)imidazole], the inhibition at 10 µM on cyclooxygenase-2 (COX-2) amounted to 100%; on cyclooxygenase-1 (COX-1), 42.5%.
On to `CS(=O)(=O)c1ccc(-n2cnc(Cl)c2-c2ccccc2)cc1` [4(3), 4-Chloro-1-(4-methylsulfonylphenyl)-5-phenylimidazole], for which, at cyclooxygenase-2 (COX-2), the inhibition at 1 µM was 82.6% and the inhibition at 10 µM is 96%. Moreover, the inhibition at 10 µM on cyclooxygenase-1 (COX-1) is 47.9%.
As to `Cc1ccc(-c2c(Cl)ncn2-c2ccc(S(C)(=O)=O)cc2)cc1` [4(1), 4-Chloro-5-(4-methylphenyl)-1-(4-methylsulfonylphenyl)imidazole], the results for the inhibition at 10 µM on cyclooxygenase-2 (COX-2) and on cyclooxygenase-1 (COX-1) were 100% and 34%, respectively.
On to `CS(=O)(=O)c1ccc(-n2cnc(Br)c2-c2ccc(F)cc2)cc1` [Example 5, 4-Bromo-5-(4-fluorophenyl)-1-(4-methylsulfonylphenyl)imidazole], for which, on cyclooxygenase-2 (COX-2), the inhibition at 1 µM turned out to be 85.2% and the inhibition at 10 µM worked out at 100%. Also, the inhibition at 10 µM at cyclooxygenase-1 (COX-1) was 33.8%.
Turning to `CS(=O)(=O)c1ccc(-c2cnc(C#N)n2-c2ccc(F)cc2)cc1` [Example 10, 1-(4-Fluorophenyl)-5-(4-methylsulfonylphenyl)imidazol-2-carbonitrile], on cyclooxygenase-2 (COX-2), the inhibition at 1 µM was found to be 74% and the inhibition at 10 µM was determined as 100%. For the same molecule, the inhibition at 10 µM on cyclooxygenase-1 (COX-1) was determined as 52.7%.
In the same order, the values of `CCOc1ccc(-c2c(Cl)ncn2-c2ccc(S(C)(=O)=O)cc2)cc1` [4(22), 4-Chloro-5-(4-ethoxyphenyl)-1-(4-methylsulfonylphenyl)imidazole] are 100%, 100% and 72.1%.
